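Five concentrations, 48 hours, 96-well plates. Here, GI50 denotes the concentration required for 50% inhibition of growth.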 Active and inactive are the calls of the source. Rule as the data show it: active = GI50 up to about 1.1 µM and inactive = higher.
Experiments:
Assay in all cases: NCI anticancer screen, dose series, 48 h
HL-60 = test system: HL-60
MDA-MB-435 = test system: MDA-MB-435
SF-295 = test system: SF-295
SF-268 = test system: SF-268
COLO 205 = test system: COLO 205
HT-29 = test system: HT-29
SR = test system: SR
SK-MEL-28 = test system: SK-MEL-28
Hs-578T = test system: Hs-578T
TK-10 = test system: TK-10
NCI-H460 = test system: NCI-H460
SK-OV-3 = test system: SK-OV-3
A498 = test system: A498
786-0 = test system: 786-0
SK-MEL-5 = test system: SK-MEL-5
UACC-257 = test system: UACC-257
UO-31 = test system: UO-31
T47D = test system: T47D
A549 = test system: A549

SMILES	GI50 (HL-60)	GI50 (MDA-MB-435)	GI50 (SF-295)	GI50 (SF-268)	GI50 (COLO 205)	GI50 (HT-29)	GI50 (SR)	GI50 (SK-MEL-28)	GI50 (Hs-578T)	GI50 (TK-10)	GI50 (NCI-H460)	GI50 (SK-OV-3)	GI50 (A498)	GI50 (786-0)	GI50 (SK-MEL-5)	GI50 (UACC-257)	GI50 (UO-31)	GI50 (T47D)	GI50 (A549)
O=C1NC(=S)N/C1=C\c1ccc(Br)s1	0.861 µM (active)	58.6 µM (inactive)	> 100 µM (inactive)	> 100 µM (inactive)	> 100 µM (inactive)	85.1 µM (inactive)	33.4 µM (inactive)	> 100 µM (inactive)	34 µM (inactive)	52 µM (inactive)	70.5 µM (inactive)	> 100 µM (inactive)	34.3 µM (inactive)	> 100 µM (inactive)	39.8 µM (inactive)	61 µM (inactive)	55.2 µM (inactive)		
O=S(=O)(O)c1cc(/N=N/c2cccc3ccccc23)c(O)c2ncccc12	37.8 µM (inactive)	> 100 µM (inactive)	> 100 µM (inactive)		33.4 µM (inactive)	24.8 µM (inactive)	23.2 µM (inactive)	> 100 µM (inactive)		> 100 µM (inactive)	25.4 µM (inactive)	> 100 µM (inactive)	31.8 µM (inactive)	38.7 µM (inactive)	31.1 µM (inactive)	64.4 µM (inactive)		55.7 µM (inactive)	35.4 µM (inactive)
COc1ccc(/C=C2\CCC(C)c3c2nc(N)c(C#N)c3-c2ccc(OC)c(OC)c2)cc1OC (configuration not stated)	5.08 µM (inactive)	10.8 µM (inactive)	6 µM (inactive)	52.7 µM (inactive)	6.56 µM (inactive)	6.25 µM (inactive)		45.8 µM (inactive)	9.16 µM (inactive)	10.8 µM (inactive)		18.5 µM (inactive)		8.89 µM (inactive)	4.84 µM (inactive)	1.96 µM (inactive)	3.16 µM (inactive)	1.13 µM (inactive)	
COc1ccc(/N=N/C(=O)NC(CC(C)C)C(=O)NC(CC(C)C)C(=O)O)cc1 (configuration not stated)	17.5 µM (inactive)	34.5 µM (inactive)	34.8 µM (inactive)	16.9 µM (inactive)	21.5 µM (inactive)	> 100 µM (inactive)		17.8 µM (inactive)	> 100 µM (inactive)	> 100 µM (inactive)	68.9 µM (inactive)		> 100 µM (inactive)	> 100 µM (inactive)	18.1 µM (inactive)	7.98 µM (inactive)	24.8 µM (inactive)	26.9 µM (inactive)	38.9 µM (inactive)
O=C(CC(=O)N1N=C(N2c3ccccc3Sc3ccccc32)CC1c1ccccc1)Nc1ccccc1Cl (configuration not stated)	> 100 µM (inactive)	> 100 µM (inactive)	> 100 µM (inactive)	> 100 µM (inactive)	> 100 µM (inactive)	> 100 µM (inactive)		> 100 µM (inactive)	> 100 µM (inactive)	> 100 µM (inactive)	> 100 µM (inactive)		> 100 µM (inactive)	> 100 µM (inactive)	> 100 µM (inactive)	> 100 µM (inactive)	> 100 µM (inactive)	> 100 µM (inactive)	> 100 µM (inactive)
O=[PH](O)c1ccsc1	> 100 µM (inactive)			> 100 µM (inactive)	> 100 µM (inactive)	55 µM (inactive)		> 100 µM (inactive)		> 100 µM (inactive)	> 100 µM (inactive)	> 100 µM (inactive)	> 100 µM (inactive)	> 100 µM (inactive)	> 100 µM (inactive)		> 100 µM (inactive)		> 100 µM (inactive)
CC(=O)OCC(OC(C)=O)C(OC(C)=O)C(OC(C)=O)C(C=NN(C(C)=O)S(=O)(=O)c1ccc(/C=C2\NC(=O)NC2=O)cc1)OC(C)=O (configuration not stated)		> 100 µM (inactive)	> 100 µM (inactive)	> 100 µM (inactive)	> 100 µM (inactive)	> 100 µM (inactive)			> 100 µM (inactive)	> 100 µM (inactive)	> 100 µM (inactive)	> 100 µM (inactive)	> 100 µM (inactive)	> 100 µM (inactive)	> 100 µM (inactive)	> 100 µM (inactive)	> 100 µM (inactive)	> 100 µM (inactive)	> 100 µM (inactive)
COc1nc2c(c(=O)n1C)N=C(c1ccc(Cl)cc1)CC(c1ccccc1)N2 (configuration not stated)		39 µM (inactive)	18.8 µM (inactive)		36 µM (inactive)	18.7 µM (inactive)	23.7 µM (inactive)	54.1 µM (inactive)			14.4 µM (inactive)	41.5 µM (inactive)	41.6 µM (inactive)	33.8 µM (inactive)	19.5 µM (inactive)	26.5 µM (inactive)	33.5 µM (inactive)		36.5 µM (inactive)
C/C(CC(O)(C(F)(F)F)C(F)(F)F)=N\N	> 10 µM (inactive)	> 10 µM (inactive)	> 10 µM (inactive)	> 10 µM (inactive)	> 10 µM (inactive)	> 10 µM (inactive)		> 10 µM (inactive)	> 10 µM (inactive)	> 10 µM (inactive)	> 10 µM (inactive)	> 10 µM (inactive)	> 10 µM (inactive)	> 10 µM (inactive)	> 10 µM (inactive)	> 10 µM (inactive)		> 10 µM (inactive)	> 10 µM (inactive)
Cc1ccc(S(=O)(=O)n2c(-c3ccccc3)c(-c3ccccc3)c3ccccc32)cc1	> 100 µM (inactive)		97.5 µM (inactive)	> 100 µM (inactive)	> 100 µM (inactive)	> 100 µM (inactive)	7.31 µM (inactive)	> 100 µM (inactive)		> 100 µM (inactive)	> 100 µM (inactive)	5.32 µM (inactive)		> 100 µM (inactive)	20.3 µM (inactive)	> 100 µM (inactive)	> 100 µM (inactive)		> 100 µM (inactive)
CC(C)=C[C@H]1CCC2(OCCO2)[C@]1(C)COCc1ccccc1		26.4 µM (inactive)	40 µM (inactive)	48.9 µM (inactive)	17.6 µM (inactive)			60.5 µM (inactive)		40.7 µM (inactive)	22.3 µM (inactive)	32.4 µM (inactive)	23.7 µM (inactive)	31 µM (inactive)	16.3 µM (inactive)	16.4 µM (inactive)	43.6 µM (inactive)	35.2 µM (inactive)	33.3 µM (inactive)
CN(CCSCCN(C)C(=O)OC(C)(C)C)C(=O)OC(C)(C)C		> 100 µM (inactive)	> 100 µM (inactive)	> 100 µM (inactive)	> 100 µM (inactive)	> 100 µM (inactive)	> 100 µM (inactive)	> 100 µM (inactive)	> 100 µM (inactive)	> 100 µM (inactive)	> 100 µM (inactive)	> 100 µM (inactive)		> 100 µM (inactive)	> 100 µM (inactive)	> 100 µM (inactive)	> 100 µM (inactive)		> 100 µM (inactive)
CC(C)(C)[Si](C)(C)OC1/C(=C/C#N)C(n2ccc(=O)[nH]c2=O)OC1CO (configuration not stated)		> 100 µM (inactive)	> 100 µM (inactive)	> 100 µM (inactive)	> 100 µM (inactive)	> 100 µM (inactive)	42.1 µM (inactive)	> 100 µM (inactive)		> 100 µM (inactive)	> 100 µM (inactive)	> 100 µM (inactive)	> 100 µM (inactive)	> 100 µM (inactive)	> 100 µM (inactive)		> 100 µM (inactive)	> 100 µM (inactive)	> 100 µM (inactive)
COc1ccc(N2C(=O)c3cc([N+](=O)[O-])cnc3S2(=O)=O)cc1	> 100 µM (inactive)	> 100 µM (inactive)	> 100 µM (inactive)	> 100 µM (inactive)	> 100 µM (inactive)	> 100 µM (inactive)	> 100 µM (inactive)	> 100 µM (inactive)	> 100 µM (inactive)	> 100 µM (inactive)	> 100 µM (inactive)	> 100 µM (inactive)		> 100 µM (inactive)			> 100 µM (inactive)		> 100 µM (inactive)
CCOC(=O)C(NC(=O)c1nc[nH]c1[N+](=O)[O-])C(C)C (configuration not stated)	27.6 µM (inactive)		47.9 µM (inactive)	> 100 µM (inactive)	82 µM (inactive)	74 µM (inactive)	61.1 µM (inactive)	> 100 µM (inactive)			50.6 µM (inactive)	> 100 µM (inactive)	> 100 µM (inactive)	71.1 µM (inactive)	17.3 µM (inactive)	94.8 µM (inactive)	> 100 µM (inactive)		> 100 µM (inactive)
Cc1cccc2oc3c(CC(=O)O)cccc3c(=O)c12	> 100 µM (inactive)	> 100 µM (inactive)	> 100 µM (inactive)	> 100 µM (inactive)	> 100 µM (inactive)	> 100 µM (inactive)	> 100 µM (inactive)	> 100 µM (inactive)	> 100 µM (inactive)	> 100 µM (inactive)	> 100 µM (inactive)		> 100 µM (inactive)	> 100 µM (inactive)	> 100 µM (inactive)	> 100 µM (inactive)	> 100 µM (inactive)		> 100 µM (inactive)
Cc1cc(O)c2c(c1O)C(=O)c1cccc(O)c1C2=O [ISLANDICIN]	60.8 µM (inactive)	> 100 µM (inactive)	> 100 µM (inactive)	> 100 µM (inactive)		> 100 µM (inactive)		> 100 µM (inactive)	> 100 µM (inactive)	> 100 µM (inactive)	> 100 µM (inactive)	> 100 µM (inactive)		> 100 µM (inactive)	> 100 µM (inactive)	> 100 µM (inactive)	> 100 µM (inactive)	> 100 µM (inactive)	> 100 µM (inactive)
